According to patent US10702507B2, “Endoparasite control agent” (THE UNIVERSITY OF TOKYO, priority 2014, dated 2020):

Tested on: 1st-stage larvae of Haemonchus contortus
Assay: Test for effect on motion of larvae of Haemonchus nematode
Settings: 20 larvae per well, 27° C./95% RH for 4 days, corrected against DMSO negative control, duplicate
Procedure: Test for Effect on Motion of Larvae of Haemonchus Nematode (Haemonchus contortus) The compound of the present invention was prepared as solutions in 100% DMSO at the final concentrations of 50 ppm, 5 ppm, 0.5 ppm, 0.05 ppm and 0.005 ppm. DMSO stands for dimethyl sulfoxide. A larval suspension containing 1st-stage larvae of Haemonchus contortus harvested by the Baermann technique (for example, see K. Nakazono et al., “Inclination of Baermann funnel wall and efficiency of nematode extraction” Proc. Assoc. Pl. Prot. Kyushu 33: 126-130 (1987)) was placed at a density of 20 larvae per well in a test plate, and 0.5 μL/well of the test solution containing the compound of the present invention diluted to a predetermined concentration was added to the test plate. The plate was kept under the conditions of 27° C./95% RH for 4 days. In the test, ivermectin was used for the positive control and DMSO was used for the negative control. The motor ability of the larvae was examined with an automatic analyzer equipped with an LCD camera. The inhibitory effect on the motion of the larvae in each treatment plot was corrected based on the inhibitory effect in the plot treated with DMSO only for the negative control. The EC50 value was calculated from the data on the corrected inhibitory effect on the motion of the larvae, and graded according to the criteria shown below. The test was conducted in duplicate per plot.

Structure (SMILES)	EC50 value of corrected inhibitory effect on the motion of the larvae, graded
CC(CNC(=O)c1ccccc1C(F)(F)F)c1ccc(-c2ccc(C(F)(F)F)cc2)cc1Cl (racemic) [Compound 1-57]	C or higher
O=C(NCCc1ccc(-c2cccnc2)cc1Cl)c1ccccc1C(F)(F)F [Compound 1-56]	C or higher
COc1ccc(-c2cnc(CCNC(=O)c3ccccc3C(F)(F)F)c(Cl)c2)cc1 [Compound 2-5]	C or higher
CC(CNC(=O)c1ccccc1C(F)(F)F)c1ccc(Oc2ncc(Cl)cc2Cl)cc1Cl (racemic) [Compound 1-43]	C or higher
COc1cc(OC)nc(Oc2ccc(CCNC(=O)c3ccccc3I)c(Cl)c2)n1 [Compound 1-27]	C or higher
O=C(NCCc1ccc(-c2ccncc2)cc1Cl)c1ccccc1C(F)(F)F [Compound 1-55]	C or higher
CC(C)(CNC(=O)c1ccccc1C(F)(F)F)c1ccc(Oc2ccc(C(F)(F)F)cn2)cc1Cl [Compound 1-45]	C or higher
O=C(NCCc1ccc(Oc2ncc(Cl)cc2Cl)cc1Cl)c1ccccc1I [Compound 1-22]	C or higher
O=C(NCCc1ccc(Oc2cnc3ccccc3n2)cc1Cl)c1ccccc1C(F)(F)F [Compound 1-14]	C or higher
COC(CNC(=O)c1ccccc1C(F)(F)F)c1ccc(Oc2ncc(Cl)cc2Cl)cc1Cl (racemic) [Compound 1-62]	C or higher
O=C(NCCc1ccc(-c2cc(F)cc(F)c2)cc1Cl)c1ccccc1C(F)(F)F [Compound 1-52]	C or higher
O=C(NCCc1ccc(Oc2ncc(Cl)cc2Cl)cc1Cl)c1ccccc1C(F)(F)F [Compound 1-1]	C or higher
O=C(NCCc1ccc(Oc2ncc(Br)cc2Cl)cc1Cl)c1ccccc1I [Compound 1-23]	C or higher
Cc1cc(C)nc(Oc2ccc(CCNC(=O)c3ccccc3I)c(Cl)c2)n1 [Compound 1-28]	C or higher
O=C(NCCc1ccc(Oc2cnccn2)cc1Cl)c1ccccc1I [Compound 1-26]	C or higher
COc1ccc(-c2ccc(CCNC(=O)c3ccccc3C(F)(F)F)c(Cl)c2)cc1 [Compound 1-53]	C or higher
COC(CNC(=O)c1ccccc1C(F)(F)F)c1ccc(Oc2ccc(C(F)(F)F)cn2)cc1Cl (racemic) [Compound 1-61]	C or higher
O=C(NCCc1ccc(Oc2nccnc2Cl)cc1Cl)c1ccccc1I [Compound 1-25]	C or higher
O=C(NCCc1ccc(Oc2nccnc2Cl)cc1Cl)c1ccccc1C(F)(F)F [Compound 1-4]	C or higher

Structure (SMILES)	EC50 value of corrected inhibitory effect on the motion of the larvae, graded
COC(CNC(=O)c1ccccc1C(F)(F)F)c1ccc(Oc2nc3ccccc3s2)cc1Cl (centres unmarked) [Compound 1-63]	C or higher
O=C(NCCc1ccc(Oc2ccc3ccccc3n2)cc1Cl)c1ccccc1I [Compound 1-34]	C or higher
O=C(NCCc1ccc(Oc2nc3ccccc3s2)cc1Cl)c1ccccc1C(F)(F)F [Compound 1-15]	C or higher
O=C(NCC1(c2ccc(Oc3ccc(C(F)(F)F)cn3)cc2Cl)CC1)c1ccccc1C(F)(F)F [Compound 1-48]	C or higher
O=C(NCCc1ncc(-c2ccccc2)cc1Cl)c1ccccc1C(F)(F)F [Compound 2-1]	C or higher
O=C(NCCc1ccc(Oc2ccc(C(F)(F)F)cc2)cc1Cl)c1ccccc1I [Compound 1-40]	C or higher
Cc1cc(C)nc(Oc2ccc(CCNC(=O)c3ccccc3C(F)(F)F)c(Cl)c2)n1 [Compound 1-7]	C or higher
O=C(NCCc1ccc(-c2ccccc2)cc1Cl)c1ccccc1C(F)(F)F [Compound 1-54]	C or higher
O=C(NCCc1ccc(-c2cccc(C(F)(F)F)c2)cc1Cl)c1ccccc1C(F)(F)F [Compound 1-51]	C or higher
O=C(NCCc1ccc(Oc2nc3ccc(Cl)cc3s2)cc1Cl)c1ccccc1C(F)(F)F [Compound 1-16]	C or higher
CC(CNC(=O)c1ccccc1C(F)(F)F)c1ccc(Oc2ncc(C(F)(F)F)cc2Cl)cc1Cl (racemic) [Compound 1-41]	C or higher
O=C(NCC1(c2ccc(Oc3ncc(Cl)cc3Cl)cc2Cl)CC1)c1ccccc1C(F)(F)F [Compound 1-49]	C or higher
O=C(NCCc1ccc(Oc2ccccc2)cc1Cl)c1ccccc1I [Compound 1-39]	C or higher
O=C(NCCc1ccc(Oc2nc3ccccc3o2)cc1Cl)c1ccccc1I [Compound 1-38]	C or higher
Cc1cc(Oc2ccc(CCNC(=O)c3ccccc3I)c(Cl)c2)nc(Cl)n1 [Compound 1-31]	C or higher
O=C(NCCc1ccc(Oc2nc3ccccc3s2)cc1Cl)c1ccccc1I [Compound 1-36]	C or higher
O=C(NCCc1ccc(Oc2ccccc2)cc1Cl)c1ccccc1C(F)(F)F [Compound 1-18]	C or higher
O=C(NCCc1ccc(Oc2cc(Cl)nc(Cl)n2)cc1Cl)c1ccccc1C(F)(F)F [Compound 1-9]	C or higher
O=C(NCCc1ccc(Oc2ncc(C(F)(F)F)cc2Cl)cc1Cl)c1ccccc1I [Compound 1-20]	C or higher

Structure (SMILES)	EC50 value of corrected inhibitory effect on the motion of the larvae, graded
COC(CNC(=O)c1ccccc1C(F)(F)F)c1ccc(Oc2cccnc2)cc1Cl (centres unmarked) [Compound 1-67]	C or higher
O=C(NCCc1ccc(Oc2ccnc(Cl)n2)cc1Cl)c1ccccc1I [Compound 1-29]	C or higher
Cc1cnc(Cl)nc1Oc1ccc(CCNC(=O)c2ccccc2C(F)(F)F)c(Cl)c1 [Compound 1-11]	C or higher
Cc1cc(Oc2ccc(CCNC(=O)c3ccccc3C(F)(F)F)c(Cl)c2)nc(Cl)n1 [Compound 1-10]	C or higher
CC(CNC(=O)c1ccccc1C(F)(F)F)c1ccc(-c2ccccc2)cc1Cl (racemic) [Compound 1-58]	C or higher
COC(CNC(=O)c1ccccc1C(F)(F)F)c1ccc(Oc2ccc(C(F)(F)F)cc2)cc1Cl (centres unmarked) [Compound 1-65]	C or higher
O=C(NCCc1ccc(Oc2nccnc2C(F)(F)F)cc1Cl)c1ccccc1C(F)(F)F [Compound 1-3]	C or higher
O=C(NCCc1ccc(Oc2nc3ccccc3o2)cc1Cl)c1ccccc1C(F)(F)F [Compound 1-17]	C or higher
O=C(NCCc1ncc(-c2ccc(C(F)(F)F)cc2)cc1Cl)c1ccccc1C(F)(F)F [Compound 2-2]	C or higher
O=C(NCCc1ccc(Oc2ccc(C(F)(F)F)cn2)cc1Cl)c1ccccc1I [Compound 1-21]	C or higher
O=C(NCCc1ccc(Oc2nccnc2C(F)(F)F)cc1Cl)c1ccccc1I [Compound 1-24]	C or higher
O=C(NCCc1ccc(Oc2ncc(Br)cc2Cl)cc1Cl)c1ccccc1C(F)(F)F [Compound 1-2]	C or higher
CC(CNC(=O)c1ccccc1C(F)(F)F)c1ccc(Oc2ccc(C(F)(F)F)cn2)cc1Cl (racemic) [Compound 1-42]	C or higher
COC(CNC(=O)c1ccccc1C(F)(F)F)c1ccc(Oc2ncc(C(F)(F)F)cc2Cl)cc1Cl (racemic) [Compound 1-60]	C or higher
O=C(NCCc1ccc(Oc2ccc(C(F)(F)F)cc2)cc1Cl)c1ccccc1C(F)(F)F [Compound 1-19]	C or higher
O=C(NCCc1ncc(-c2cc(F)cc(F)c2)cc1Cl)c1ccccc1C(F)(F)F [Compound 2-4]	C or higher
O=C(NCCc1ccc(Oc2cnccn2)cc1Cl)c1ccccc1C(F)(F)F [Compound 1-5]	C or higher
O=C(NCCc1ccc(Oc2ccnc(Cl)n2)cc1Cl)c1ccccc1C(F)(F)F [Compound 1-8]	C or higher
